Measurements published in patent US20060041017A1, “Synergistic conjugated linoleic acid (CLA) and carnitine combination” (priority 2004, published 2006).
One block for each compound: values may come before it.

Columns and labels:
Type in all cases: in vivo
kidney mitochondrial CoQ = experiment: Kidney mitochondrial CoQ levels (HPLC) after 2 weeks of supplementation; conditions: Wistar rats; for Kidney mitochondrial CoQ content (CoQ10-OX+CoQ9-OX) in comparison with control group: 2 weeks, result in words; for KIDNEY mitochondria CoQ9-OX / KIDNEY mitochondria CoQ10 + CoQ9 / KIDNEY mitochondria CoQ10-OX: oral gavage daily 2 weeks, 91 mg CLA, 68,25 mg L-carnitine fumarate
Protocol: (§1) Methods: Four groups of 3-months old Wistar rats were given the following treatments by oral gavage daily for 2 weeks: (1) C (control)−1 ml corn oil, (2) CLA−91 mg CLA (in corn oil), (3) CAR−68,25 mg L-carnitine fumarate (in corn oil), (4) CLA+CAR−91 mg CLA with 68,25 mg L-carnitine fumarate (in corn oil). Body weight and body fat weight (corpus adiposum nuchae, corpus adiposum, perirenal tissue, omentum majus) were measured. CoQ 10 and CoQ9 in isolated mitochondria were estimated by HPLC method. For evaluation of parameters of oxidative phosphorylation were used Gilson oxygraph records of respiratory chain by using Clark oxygen electrode (S3— ADP stimulated respiration, S4— basal respiration, OPR—rate of ATP production). A spectrophotometric assay was used for CPT activity.

[1] = test system: Carnitine palmitoytransferase (CPT); experiment: CPT activity in kidney mitochondria (spectrophotometric assay); conditions: Wistar rats, oral gavage daily 2 weeks; 91 mg CLA, 68,25 mg L-carnitine fumarate
Protocol: as §1

[2] = test system: carnitine palmitoyl transferase (CPT 1); experiment: CPT I activity in brown adipose tissue after two weeks of daily oral gavage; conditions: adult rats, oral gavage daily for two weeks; for CPT I activity in brown adipose tissue (low dose) % Control: control = corn oil; for CPT I activity in brown adipose tissue (standard dose) % Control: control = water; for CPT I activity in brown adipose tissue (low dose) Mean ± SEM: L-Carnitine 68.25 mg, CLA 91 mg, Carnitine+CLA 68.25 mg+91 mg; for CPT I activity in brown adipose tissue (standard dose) Mean ± SEM: L-Carnitine 273 mg, CLA 354 mg, Carnitine+CLA 273 mg+364 mg
Description: Brown adipose tissue is an important site for long-term storage of fat in the body and for the rapid metabolism of fat for thermogenesis. CPT I is a key enzyme in this process and it has an essential role In the metabolism of fats by transporting long chain fatty acids into the Inner mitochondria for oxidation. The first experiment involved the following groups of adult rats. The treatment involved administration of the following products daily by oral gavage for two weeks, the control group receiving water. Carnitine was administered as the fumarate salt. • 1. Control (water)−(1 mL) • 2. L-Carnitine−273 mg (in 1 mL water) • 3. CLA−354 mg (In 1 mL corn oil) • 4. Carnitine+CLA−273 mg+364 mg (in 1 mL corn oil) At the end of two weeks, the animals were euthanized and brown adipose tissue was excised for CPT I assay according to Rahman et al(2001). […] Corn Oil−(1 mL) • 2. L-Carnitine−68.25 mg (in 1 mL water) • 3. CLA−91 mg (in 1 mL corn oil) • 4. Carnitine+CLA−68.25 mg+91 mg (in 1 mL corn oil)

heart mitochondrial CoQ = experiment: Heart mitochondrial CoQ levels (HPLC) after 2 weeks of supplementation; conditions: Wistar rats; for Heart mitochondrial CoQ content (CoQ10-OX+CoQ9-OX) in comparison with control group: 2 weeks, result in words; for HEART mitochondria CoQ9-OX / HEART mitochondria CoQ10 + CoQ9 / HEART mitochondria CoQ10-OX: oral gavage daily 2 weeks, 91 mg CLA, 68,25 mg L-carnitine fumarate, means ± s.e.m.
Protocol: as §1

[3] = test system: Carnitine palmitoytransferase (CPT); experiment: CPT activity in heart mitochondria (spectrophotometric assay); conditions: Wistar rats, oral gavage daily 2 weeks; 91 mg CLA, 68,25 mg L-carnitine fumarate; means ± s.e.m.
Protocol: as §1

Compound: C[N+](C)(C)CC(O)CC(=O)[O-] (stereo not shown) [Carnitine, 3-hydroxy-4-N,N, N-trlmethylaminobutyrate]
Kidney mitochondrial CoQ content (CoQ10-OX+CoQ9-OX) in comparison with control group (kidney mitochondrial CoQ): significantly stimulated | KIDNEY mitochondria CoQ9-OX (kidney mitochondrial CoQ): 1.290 ± 0.119 nmol/mg prot. | KIDNEY mitochondria CoQ10 + CoQ9 (kidney mitochondrial CoQ): 1.471 ± 0.128 nmol/mg prot. | KIDNEY mitochondria CoQ10-OX (kidney mitochondrial CoQ): 0.138 ± 0.012 nmol/mg prot. | KIDNEY mitochondria CPT [1]: 2.974 ± 0.466 nmol/mg rot./min | CPT I activity in brown adipose tissue (low dose) % Control [2]: 125 % Control | CPT I activity in brown adipose tissue (standard dose) % Control [2]: 117.85 % Control | CPT I activity in brown adipose tissue (low dose) Mean ± SEM [2]: 27.024 ± 2.074 nmoles/mg protein/min | CPT I activity in brown adipose tissue (standard dose) Mean ± SEM [2]: 26.808 ± 2.373 nmoles/mg protein/min | Heart mitochondrial CoQ content (CoQ10-OX+CoQ9-OX) in comparison with control group (heart mitochondrial CoQ): significantly stimulated | HEART mitochondria CoQ9-OX (heart mitochondrial CoQ): 4.692 ± 0.168 nmol/mg prot. | HEART mitochondria CoQ10 + CoQ9 (heart mitochondrial CoQ): 5.147 ± 0.181 nmol/mg prot. | HEART mitochondria CoQ10-OX (heart mitochondrial CoQ): 0.452 ± 0.021 nmol/mg prot. | HEART mitochondria CPT [3]: 12.36 ± 1.759 nmol/mg rot./min

CPT I activity in brown adipose tissue (low dose) % Control [2]: 121.53 % Control | CPT I activity in brown adipose tissue (standard dose) % Control [2]: 129.82 % Control
Compound: octadecadienoic acid [CLA]
Kidney mitochondrial CoQ content (CoQ10-OX+CoQ9-OX) in comparison with control group (kidney mitochondrial CoQ): significantly stimulated | KIDNEY mitochondria CoQ9-OX (kidney mitochondrial CoQ): 1.162 ± 0.102 nmol/mg prot. | KIDNEY mitochondria CoQ10 + CoQ9 (kidney mitochondrial CoQ): 1.284 ± 0.105 nmol/mg prot. | KIDNEY mitochondria CoQ10-OX (kidney mitochondrial CoQ): 0.122 ± 0.005 nmol/mg prot. | KIDNEY mitochondria CPT [1]: 6.517 ± 0.351 nmol/mg rot./min | CPT I activity in brown adipose tissue (low dose) Mean ± SEM [2]: 27.840 ± 1.259 nmoles/mg protein/min | CPT I activity in brown adipose tissue (standard dose) Mean ± SEM [2]: 29.530 + 1.590 nmoles/mg protein/min | Heart mitochondrial CoQ content (CoQ10-OX+CoQ9-OX) in comparison with control group (heart mitochondrial CoQ): significantly stimulated | HEART mitochondria CoQ9-OX (heart mitochondrial CoQ): 3.379 ± 0.261 nmol/mg prot. | HEART mitochondria CoQ10 + CoQ9 (heart mitochondrial CoQ): 3.722 ± 0.298 nmol/mg prot. | HEART mitochondria CoQ10-OX (heart mitochondrial CoQ): 0.343 ± 0.041 nmol/mg prot. | HEART mitochondria CPT [3]: 15.52 ± 1.080 nmol/mg rot./min
